# Paper PMC11413964, “Discovery of 1,3-disubstituted prop-2-en-1-one derivatives as inhibitors of neutrophilic inflammation via modulation of MAPK and Akt pathways” (Journal of Enzyme Inhibition and Medicinal Chemistry, 2024)
# System: fMLF/cytochalasin B (CB)-activated human neutrophils
# Assay: Superoxide anion generation (ferricytochrome c reduction) in fMLF/CB-activated human neutrophils
# Type: cell-based
# Conditions: Neutrophil, 10 μM compound, fMLF/CB stimulation, mean ± SEM (n = 3–5)
# Procedure: (§1) The study involving neutrophils was approved by the Institutional Review Board of Chang Gung Memorial Hospital under IRB number: 201902217A3 and was conducted in accordance with the principles of the Declaration of Helsinki. Healthy volunteers aged 20–35 years provided signed informed consents for blood collection. Isolation of neutrophils was done using dextran sedimentation, Ficoll-Hypaque density gradient centrifugation, and hypotonic haemolysis. For the anti-inflammatory studies, neutrophils were suspended in Hank’s balanced salt solution (HBSS) containing 1 mM Ca^2+ at a pH of 7.4[72].
# The reduction of ferricytochrome c was utilised to measure the production of SO anions in activated human neutrophils. […] The neutrophils were then stimulated with fMLF (0.1 μM) and CB (1 μg/mL) for 13 min. […] LY294002 was used as a positive control.
row,SMILES,inhibition at 10 µM [%]
1,"CC(C)(C)C(=O)/C=C/c1cc(F)cc(F)c1 [Compound 14, (E)-1-(3,5-Difluorophenyl)-4,4-dimethylpent-1-en-3-one]",69.1 ± 6.71
2,"CCOc1ccccc1C(=O)/C=C/c1ccc(-c2ccccc2)cc1 [Compound 30, (E)-3-([1,1′-Biphenyl]-4-yl)-1-(2-ethoxyphenyl)prop-2-en-1-one]",8.69 ± 2.43
3,"COc1ccc(C(=O)/C=C/c2ccccc2Cl)cc1OC [Compound 20a, (E)-3-(2-Chlorophenyl)-1-(3,4-dimethoxyphenyl)prop-2-en-1-one]",95.6 ± 1.14
4,"O=C(/C=C/c1ccc([N+](=O)[O-])cc1)c1ccc2c(c1)OCO2 [Compound 9a, (E)-1-(Benzo[d][1,3]dioxol-5-yl)-3-(4-nitrophenyl)prop-2-en-1-one]",18.1 ± 3.34
5,"Cc1ccccc1C(=O)/C=C/c1ccc([N+](=O)[O-])cc1 [Compound 4a, (E)-3-(4-Nitrophenyl)-1-(o-tolyl)prop-2-en-1-one]",100 ± 2.65
6,"O=C(/C=C/c1ccc2ccccc2n1)c1ccccc1 [Compound 28, (E)-1-Phenyl-3-(quinolin-2-yl)prop-2-en-1-one]",106 ± 1.73
7,"COc1ccc(C(=O)/C=C/c2ccc(Cl)cc2)c(OC)c1 [Compound 15a, (E)-3-(4-Chlorophenyl)-1-(2,4-dimethoxyphenyl)prop-2-en-1-one]",13.9 ± 2.43
8,"CC(C)(C)C(=O)/C=C/c1cccc([N+](=O)[O-])c1 [Compound 8, (E)-4,4-Dimethyl-1-(3-nitrophenyl)pent-1-en-3-one]",10.3 ± 2.86
9,"CCOc1ccccc1C(=O)/C=C/c1ccc(Br)s1 [Compound 25, (E)-3-(5-Bromothiophen-2-yl)-1-(2-ethoxyphenyl)prop-2-en-1-one]",67.8 ± 3.19
10,"COc1cccc(C(=O)/C=C/c2ccc(Cl)cc2)c1 [Compound 13a, (E)-3-(4-Chlorophenyl)-1-(3-methoxyphenyl)prop-2-en-1-one]",101.7 ± 0.44
11,"CC(C)(C)C(=O)/C=C/c1ccc2ccccc2n1 [Compound 27, (E)-4,4-Dimethyl-1-(quinolin-2-yl)pent-1-en-3-one]",2.26 ± 0.97
12,"COc1ccc(C(=O)/C=C/c2ccccc2Cl)cc1 [Compound 19a, (E)-3-(2-Chlorophenyl)-1-(4-methoxyphenyl)prop-2-en-1-one]",80.2 ± 1.98
13,"O=C(/C=C/c1ccc(Cl)cc1)c1ccccc1 [Compound 2, (E)-3-(4-Chlorophenyl)-1-phenylprop-2-en-1-one]",94.7 ± 3.22
14,"COc1ccc(C(=O)/C=C/c2ccc(Cl)cc2)cc1OC [Compound 16a, (E)-3-(4-Chlorophenyl)-1-(3,4-dimethoxyphenyl)prop-2-en-1-one]",68.2 ± 7.74

# Same assay, conditions: Neutrophil, fMLF/CB stimulation, mean ± SEM (n = 3–5)
row,IC50 [µM],SMILES
1,6.52 ± 0.57,"CC(C)(C)C(=O)/C=C/c1cc(F)cc(F)c1 [Compound 14, (E)-1-(3,5-Difluorophenyl)-4,4-dimethylpent-1-en-3-one]"
2,4.55 ± 0.1,"Cc1ccccc1C(=O)/C=C/c1ccc([N+](=O)[O-])cc1 [Compound 4a, (E)-3-(4-Nitrophenyl)-1-(o-tolyl)prop-2-en-1-one]"
3,1.73 ± 0.07,"O=C(/C=C/c1ccc2ccccc2n1)c1ccccc1 [Compound 28, (E)-1-Phenyl-3-(quinolin-2-yl)prop-2-en-1-one]"
4,6.21 ± 0.36,"CCOc1ccccc1C(=O)/C=C/c1ccc(Br)s1 [Compound 25, (E)-3-(5-Bromothiophen-2-yl)-1-(2-ethoxyphenyl)prop-2-en-1-one]"
5,1.37 ± 0.73,"COc1cccc(C(=O)/C=C/c2ccc(Cl)cc2)c1 [Compound 13a, (E)-3-(4-Chlorophenyl)-1-(3-methoxyphenyl)prop-2-en-1-one]"
6,5.23 ± 0.62,"COc1ccc(C(=O)/C=C/c2ccccc2Cl)cc1 [Compound 19a, (E)-3-(2-Chlorophenyl)-1-(4-methoxyphenyl)prop-2-en-1-one]"
7,3.01 ± 0.68,"O=C(/C=C/c1ccc(Cl)cc1)c1ccccc1 [Compound 2, (E)-3-(4-Chlorophenyl)-1-phenylprop-2-en-1-one]"

row,SMILES,IC50 [µM]
1,"COc1ccc(C(=O)/C=C/c2ccccc2Cl)cc1OC [Compound 20a, (E)-3-(2-Chlorophenyl)-1-(3,4-dimethoxyphenyl)prop-2-en-1-one]",3.55 ± 0.56
2,"COc1ccc(C(=O)/C=C/c2ccc(Cl)cc2)cc1OC [Compound 16a, (E)-3-(4-Chlorophenyl)-1-(3,4-dimethoxyphenyl)prop-2-en-1-one]",5.53 ± 1.48

# System: fMLF/cytochalasin B (CB)-activated human neutrophils
# Assay: Elastase release in fMLF/CB-activated human neutrophils
# Type: cell-based
# Conditions: Homo sapiens, Neutrophil; 10 μM compound; fMLF/CB stimulation; mean ± SEM (n = 3–5)
# Procedure: as §1
# Neutrophils were subsequently stimulated with fMLF (0.1 μM) and CB (0.5 μg/mL) for 13 min. […] LY294002 was used as a positive control.
row,SMILES,inhibition at 10 µM [%]
1,"CC(C)(C)C(=O)/C=C/c1cc(F)cc(F)c1 [Compound 14, (E)-1-(3,5-Difluorophenyl)-4,4-dimethylpent-1-en-3-one]",12 ± 3.52
2,"CCOc1ccccc1C(=O)/C=C/c1ccc(-c2ccccc2)cc1 [Compound 30, (E)-3-([1,1′-Biphenyl]-4-yl)-1-(2-ethoxyphenyl)prop-2-en-1-one]",15.8 ± 2.57
3,"COc1ccc(C(=O)/C=C/c2ccccc2Cl)cc1OC [Compound 20a, (E)-3-(2-Chlorophenyl)-1-(3,4-dimethoxyphenyl)prop-2-en-1-one]",67.7 ± 5.37
4,"O=C(/C=C/c1ccc([N+](=O)[O-])cc1)c1ccc2c(c1)OCO2 [Compound 9a, (E)-1-(Benzo[d][1,3]dioxol-5-yl)-3-(4-nitrophenyl)prop-2-en-1-one]",16.7 ± 6.07
5,"Cc1ccccc1C(=O)/C=C/c1ccc([N+](=O)[O-])cc1 [Compound 4a, (E)-3-(4-Nitrophenyl)-1-(o-tolyl)prop-2-en-1-one]",63.8 ± 5.98
6,"O=C(/C=C/c1ccc2ccccc2n1)c1ccccc1 [Compound 28, (E)-1-Phenyl-3-(quinolin-2-yl)prop-2-en-1-one]",99.1 ± 7.32
7,"COc1ccc(C(=O)/C=C/c2ccc(Cl)cc2)c(OC)c1 [Compound 15a, (E)-3-(4-Chlorophenyl)-1-(2,4-dimethoxyphenyl)prop-2-en-1-one]",4.42 ± 3.9
8,"CC(C)(C)C(=O)/C=C/c1cccc([N+](=O)[O-])c1 [Compound 8, (E)-4,4-Dimethyl-1-(3-nitrophenyl)pent-1-en-3-one]",4.89 ± 0.91
9,"CCOc1ccccc1C(=O)/C=C/c1ccc(Br)s1 [Compound 25, (E)-3-(5-Bromothiophen-2-yl)-1-(2-ethoxyphenyl)prop-2-en-1-one]",26.9 ± 5.5
10,"COc1cccc(C(=O)/C=C/c2ccc(Cl)cc2)c1 [Compound 13a, (E)-3-(4-Chlorophenyl)-1-(3-methoxyphenyl)prop-2-en-1-one]",91.9 ± 1.63
11,"CC(C)(C)C(=O)/C=C/c1ccc2ccccc2n1 [Compound 27, (E)-4,4-Dimethyl-1-(quinolin-2-yl)pent-1-en-3-one]",5.21 ± 2.72
12,"COc1ccc(C(=O)/C=C/c2ccccc2Cl)cc1 [Compound 19a, (E)-3-(2-Chlorophenyl)-1-(4-methoxyphenyl)prop-2-en-1-one]",37.6 ± 3.54
13,"O=C(/C=C/c1ccc(Cl)cc1)c1ccccc1 [Compound 2, (E)-3-(4-Chlorophenyl)-1-phenylprop-2-en-1-one]",62 ± 6.31
14,"COc1ccc(C(=O)/C=C/c2ccc(Cl)cc2)cc1OC [Compound 16a, (E)-3-(4-Chlorophenyl)-1-(3,4-dimethoxyphenyl)prop-2-en-1-one]",22.9 ± 7.11

# Same assay, conditions: Homo sapiens, Neutrophil; fMLF/CB stimulation; mean ± SEM (n = 3–5)
row,IC50 [µM],SMILES
1,7.22 ± 1.16,"Cc1ccccc1C(=O)/C=C/c1ccc([N+](=O)[O-])cc1 [Compound 4a, (E)-3-(4-Nitrophenyl)-1-(o-tolyl)prop-2-en-1-one]"
2,2.17 ± 0.3,"O=C(/C=C/c1ccc2ccccc2n1)c1ccccc1 [Compound 28, (E)-1-Phenyl-3-(quinolin-2-yl)prop-2-en-1-one]"
3,3.3 ± 0.68,"COc1cccc(C(=O)/C=C/c2ccc(Cl)cc2)c1 [Compound 13a, (E)-3-(4-Chlorophenyl)-1-(3-methoxyphenyl)prop-2-en-1-one]"
4,7.78 ± 0.96,"O=C(/C=C/c1ccc(Cl)cc1)c1ccccc1 [Compound 2, (E)-3-(4-Chlorophenyl)-1-phenylprop-2-en-1-one]"

row,SMILES,IC50 [µM]
1,"COc1ccc(C(=O)/C=C/c2ccccc2Cl)cc1OC [Compound 20a, (E)-3-(2-Chlorophenyl)-1-(3,4-dimethoxyphenyl)prop-2-en-1-one]",6.79 ± 0.72

# System: not given
# Assay: not given
# Conditions: not given
row,melting point [°C],SMILES
1,71 to 72,"CC(C)(C)C(=O)/C=C/c1cc(F)cc(F)c1 [Compound 14, (E)-1-(3,5-Difluorophenyl)-4,4-dimethylpent-1-en-3-one]"
2,98 to 99,"CCOc1ccccc1C(=O)/C=C/c1ccc(-c2ccccc2)cc1 [Compound 30, (E)-3-([1,1′-Biphenyl]-4-yl)-1-(2-ethoxyphenyl)prop-2-en-1-one]"
3,182.4,"O=C(/C=C/c1ccc([N+](=O)[O-])cc1)c1ccc2c(c1)OCO2 [Compound 9a, (E)-1-(Benzo[d][1,3]dioxol-5-yl)-3-(4-nitrophenyl)prop-2-en-1-one]"
4,128 to 129,"Cc1ccccc1C(=O)/C=C/c1ccc([N+](=O)[O-])cc1 [Compound 4a, (E)-3-(4-Nitrophenyl)-1-(o-tolyl)prop-2-en-1-one]"
5,118 to 120,"O=C(/C=C/c1ccc2ccccc2n1)c1ccccc1 [Compound 28, (E)-1-Phenyl-3-(quinolin-2-yl)prop-2-en-1-one]"
6,92 to 93,"CC(C)(C)C(=O)/C=C/c1cccc([N+](=O)[O-])c1 [Compound 8, (E)-4,4-Dimethyl-1-(3-nitrophenyl)pent-1-en-3-one]"
